According to patent US4689321A, “Oxo propenyl nucleosides and nucleoside related analogs” (The Research Foundation of State University of New York, priority 1984, dated 1987):

Legend:
L-1210 Leukemia = test: tumor cell growth in culture, L-1210 Leukemia; format: cell-based; details: Mus musculus, L1210, testing at Roswell Park Memorial Institute
Description: (§1) on Tumor Cell Growth in Culture
(§2) ^a Testing performed at Roswell Park Memorial Institute. See proposal
(§3) for methodology and references.

Lewis lung carcinoma = test: tumor cell growth in culture, Lewis lung carcinoma; format: cell-based; details: testing at Roswell Park Memorial Institute
Description: as §1, §2, §3

[1] = tested on: TTP formation in HeLa cells; test: inhibition of TTP formation in HeLa cells; format: cell-based; details: Homo sapiens, 0.5 h, 30 min
Experimental: (§4) Effects of Inhibitors on Synthesis of DNA and TTP in HeLa Cells
^b HeLa cells were suspended for 30 min. in 2 ml. of minimal essentia
media containing 25 uCi of ^3 H--thymidine. Cells were lysed, carrier
nucleotides added and ^3 H--TTP isolated by thin layer chromatography

DNA synthesis = test: cytotoxicity and effect on DNA, RNA and protein synthesis (Fig. I); format: cell-based
murine leukemia = murine leukemia model, ascites cells implanted i.p. in mice (Table I); format: in vivo, murine (CFD1+ mice); details: for Effect MST % T/C: >125 considered significant; for MST (median survival time): control 6.5
Description: Tumor Inoculum: 10^6 ascites cells implanted i.p.
Evaluation: MST = median survival time
Effect: % T/C = (MST treated/MST control) × 100.

[2] = tested on: DLD-1 human colon carcinoma; test: tumor cell growth in culture, DLD-1 human colon carcinoma; format: cell-based; details: testing at Brown University
Description: as §1
^b Testing performed at Brown University. Cell lines and methodology

B-16 melanoma = test: tumor cell growth in culture, B-16 melanoma; format: cell-based; details: Mus musculus, B16, testing at Roswell Park Memorial Institute
Description: as §1, §2, §3

[3] = tested on: DNA synthesis in HeLa cells; test: inhibition of DNA synthesis in HeLa cells; format: cell-based; details: Homo sapiens, 1 h, 60 min
Experimental: as §4
^a Measured, over a period of 60 min., as described in the Legend to […]

[4] = 2 mg/kg/inj IP, schedule qd 1 5
[5] = 4 mg/kg/inj IP, schedule qd 1 5
[6] = 8 mg/kg/inj IP, schedule qd 1 5
[7] = 16 mg/kg/inj IP, schedule qd 1 5

In the case of `Cc1cn([C@H]2C[C@H](O)[C@@H](CO)O2)c(=O)n(C=CC=O)c1=O` [XX-336, 3-(thymidin-3-yl)-prop-2-enal], the IC50 (L-1210 Leukemia) is reported as 1.6 µM, the IC50 (Lewis lung carcinoma) is reported as 5.9 µM and the inhibition at 0.1 µM ([1]; 0.1 μM) is reported as 6%. It also gave an inhibition at 0.3 µM ([1]; 0.3 μM) of 50%, an inhibition at 1 µM ([1]; 1.0 μM) of 75% and an inhibition at 2 µM ([1]; 2.0 μM) of 85%. For the same compound, the inhibition at 20 µM ([1]; 20.0 μM) was 95%, the “cytotoxicity associated with inhibition of DNA synthesis” value (DNA synthesis) was “associated dominantly with the inhibition of DNA synthesis” and the “Effect MST % T/C” value (murine leukemia; [4]) was 123%. The “MST (median survival time)” value (murine leukemia; [4]) was 8.0 days, the “Effect MST % T/C” value (murine leukemia; [5]) was 123% and the “MST (median survival time)” value (murine leukemia; [5]) was 8.0 days. For the same compound, the “Effect MST % T/C” value (murine leukemia; 8 mg/kg/inj IP, schedule d.1) was 154%, the “MST (median survival time)” value (murine leukemia; 8 mg/kg/inj IP, schedule d.1) was 10.0 days and the “Effect MST % T/C” value (murine leukemia; [6]) was 146%. The “MST (median survival time)” value (murine leukemia; [6]) was 9.5 days, the “Effect MST % T/C” value (murine leukemia; 16 mg/kg/inj IP, schedule d.1) was 131% and the “MST (median survival time)” value (murine leukemia; 16 mg/kg/inj IP, schedule d.1) was 8.5 days. The “Effect MST % T/C” value (murine leukemia; [7]) was 146%, the “MST (median survival time)” value (murine leukemia; [7]) was 9.5 days and the “Effect MST % T/C” value (murine leukemia; 32 mg/kg/inj IP, schedule d.1) was 123%. For the same compound, the “MST (median survival time)” value (murine leukemia; 32 mg/kg/inj IP, schedule d.1) was 8.0 days, the IC50 [2] was 5 µM and the IC50 (B-16 melanoma) was 4.2 µM. The inhibition at 0.1 µM ([3]; 0.1 μM) was 6%, the inhibition at 0.3 µM ([3]; 0.3 μM) was 38% and the inhibition at 1 µM ([3]; 1.0 μM) was 70%. It also gave an inhibition at 2 µM ([3]; 2.0 μM) of 88% and an inhibition at 20 µM ([3]; 20.0 μM) of 100%.
